Patent publication US9315544B2, “Method of treating eosinophilia by administering an immunomodulating peptide” (National Tsing Hua University, priority 2012, dated 2016)

How the values were obtained:
[1] = system: human CCL11; test: CCL11 protein release from Beas-2B cells by ELISA; format: cell-based; conditions: Beas-2B cells, 24 h
Description: FIG. 2 illustrates CCL11 expression in CMP and ECP co-treated Beas-2B cells. Beas-2B cells were starved with serum free medium for 24 h, followed by stimulation with ECP (column 2). Cells were stimulated with PBS as negative control (column 1) and ECP in the absence of CMP (column 2) or presence of 1 μM (column 3), 2.5 μM (column 4), 5 μM (column 5), 10 μM (column 6) CMP at 37° C. for 24 h. CCL11 protein level was determined by ELISA kit employing CCL11 antibody. The data represented mean±SD (standard deviation) of at least three independent experiments. ***, p<0.001; **, p<0.01
FIG. 3 illustrates CCL11 expression in CMP and IL-4 co-treated Beas-2B cells. Beas-2B cells were starved with serum free medium for 24 h, followed by stimulation with PBS (column 1) or 10 ng/mL IL-4 (column 2-7). Cells were stimulated with 10 ng/mL IL-4 in the absence […] or presence of 1 μM (column 3), 2.5 μM (column 4), 5 μM (column 5) and 10 μM (column 6) CMP at 37° C. for 24 h. CCL11 protein level was determined by ELISA kit employing CCL11 antibody. The data represented mean±SD (standard deviation) of at least three independent experiments. ***, p<0.001 (Stimulation with IL-4 compared with PBS treated Beas-2B cells). *, p<0.05 (Stimulation with indicated concentrations of CMP compared with IL-4 treated Beas-2B cells).
CCL11 ELISA kit (R&D) is an in vitro enzyme-linked immunosorbent assay for quantitative determination of human CCL11 concentration in cell culture supernatants. This assay employed an antibody specific for human CCL11 coated on a 96-well plate. The wells were incubated with 50 μL standard or sample for 2.5 hours at room temperature. After washing with 1× wash solution five times, 200 μL of CCL11 conjugate were added into each wells for 1 h. After washing, 100 μL TMB One-Step Substrate Reagent were added into each wells at room temperature for 30 minutes. 50 μL of Stop Solution were added into each wells and read at 450 nm by spectrophotometer immediately. Limit of detection in the assay was 5 pg/mL.
To investigate whether CMP influenced ECP-mediated CCL11 expression, Beas-2B cells were separately stimulated with 5 μM ECP in the absence of CMP and in the presence of 1 μM, 2.5 μM, 5 μM and 10 μM CMP at 37° C. for 24 h.
To further investigate whether CMP influenced CCL11 production from other stimulation in Beas-2B cells, serum-deprived Beas-2B cells were stimulated with 10 ng/mL IL-4, a dominant cytokine regulating CCL11, alone or in the presence of CMP at concentrations 1, 2.5, 5 and 10 μM at 37° C. for 24 h.

[2] = system: mite-induced airway hyperresponsiveness; test: Mite-induced airway hyperresponsiveness, pause enhancement (Penh) by whole-body plethysmography; format: in vivo, BALB/c mouse
From the text: FIG. 4 illustrates experimental design. All groups except control group were immunized with mite crude extract allergen on days 1 and 8, then mite crude extract allergen intratracheally on day 15 in all mite treated group, BALB/c mouse were divided into six groups (1) control group (PBS), (2) mites delivered intratracheally (mIT, mite on day 15) alone, (3) CMP intranasal (eIN, CMP on days 1 to 22) alone, (4) preventive-treatment group (eIN+mIT, CMP on days 1 to 14, mite on day 15) (5) therapy-treatment group (mIT+eIN, mite on day 15, CMP on days 15 to 22), and (6) preventive- and therapeutic-treatment group (eIN+mIT+eIN, CMP on days 1 to 22, mite on day 15).
FIG. 5 illustrates inhibitory effect of CMP on mite-induced airway hyperresponsiveness. The effect of methacholine (MCh) on pause enhancement (Penh) in mouse exposed to CMP in the presence and absence of mite proteins. Penh was measured in all six treatment groups after stimulation with 6.25, 12.5, or 25 mg/ml MCh for 1 min. The values were presented as a ratio with respect to the baseline Penh (before MCh stimulation) for each group. Each result was expressed as the mean±S.D., n=4. **, P<0.01. ***, P<0.001. […]
Airway responsiveness was measured in mouse on day 22 (i.e., 1 hour after the last challenge) in conscious, spontaneously breathing mouse using a whole-body plethysmography system (Buxco, Wilmington, N.C., USA) as described before (Maeda T, et al, Eur J Biochem 2002, 269, 307-316). […] The chamber-pressure-time wave was continuously measured via a transducer connected to a computer data acquisition system. After a baseline Penh reading for >3 min, mice were serially exposed to increasing concentrations of nebulized methacholine (MCh) (0, 6.25, 12.5, and 25 mg/ml; Sigma, St Louis, Mo., USA) in PBS for 1 min by inhalation. Penh values, which are measured as changes in enhanced pause, tidal volume, and breathing frequency (breaths/minute) for the first 3 min after the end of MCh nebulization, were averaged and used to compare responses among all six-treatment groups. […]

[3] = system: bronchial epithelial cell; conditions: cited from earlier work

NYRWRCKNQN (CMP)
release of CCL11 induced by IL-4, reduced to ([1]; 10 ng/mL IL-4 with 5 μM CMP): 48.1 pg/mL | release of CCL11 induced by IL-4, reduced to ([1]; 10 ng/mL IL-4 with 10 μM CMP): 30.2 pg/mL | CCL11 production induced by IL-4 ([1]; 10 ng/mL IL-4 with 1 or 2.5 μM CMP): did not reduce | CCL11 induced by ECP, reduced to ([1]; 5 μM ECP and 5 μM CMP): 7.55 pg/mL | CCL11 induced by ECP, reduced to ([1]; 5 μM ECP and 10 μM CMP): 8.94 pg/mL | ECP-mediated CCL11 production ([1]; 5 μM ECP and 1 or 2.5 μM CMP): did not reduce | AHR, response to increasing dose of inhaled methacholine ([2]; CMP intranasal, eIN+mIT, mIT+eIN and eIN+mIT+eIN groups): significantly decrease | Penh stimulation compared with mite group ([2]; eIN+mIT and mIT+eIN groups, 25 mg/ml MCh): lower stimulation | Penh/baseline ratio change of mIT group compared with CMP group ([2]; mIT vs eIN+mIT+eIN group, 12.5 and 25 mg/ml MCh): much higher | cytotoxic effect on bronchial epithelial cell [3]: no cytotoxic effect
